Test results as given in US8629157B2, “Pyrrolidine compounds which modulate the CB2 receptor” (Boehringer Ingelheim International GmbH, priority 2009, dated 2014).

molecular target: human CB2R (Homo sapiens, UniProt P34972); experiment: CB2R mediated modulation of cAMP synthesis; assay type: cell-based; conditions: not given
Experimental: B. CB2R Mediated Modulation of cAMP Synthesis:
Compounds of the invention were evaluated for their CB2 agonist or inverse agonistic activity in accordance with the following experimental method.
CHO cells expressing human CB2R (Euroscreen) were plated at a density of 5000 cells per well in 384 well plates and incubated overnight at 37° C. After removing the media, the cells were treated with test compounds diluted in stimulation buffer containing 1 mM IBMX, 0.25% BSA and 10 uM Forskolin. The assay was incubated for 30 minutes at 37° C. Cells were lysed and the cAMP concentration was measured using DiscoverX-XS cAMP kit, following the manufacturer's protocol. In this setting, agonists will decrease forskolin induced production of cAMP while inverse agonists will further increase forskolin induced production of cAMP. EC50 of agonists were calculated as follows. The maximal amount of cAMP produced by forskolin compared to the level of cAMP inhibited by 1 uM CP55940 is defined as 100%. […] Data was analyzed using a four-parameter logistic model. (Model 205 of XLfit 4.0).

Sequence of human CB2R (P34972 whole entry): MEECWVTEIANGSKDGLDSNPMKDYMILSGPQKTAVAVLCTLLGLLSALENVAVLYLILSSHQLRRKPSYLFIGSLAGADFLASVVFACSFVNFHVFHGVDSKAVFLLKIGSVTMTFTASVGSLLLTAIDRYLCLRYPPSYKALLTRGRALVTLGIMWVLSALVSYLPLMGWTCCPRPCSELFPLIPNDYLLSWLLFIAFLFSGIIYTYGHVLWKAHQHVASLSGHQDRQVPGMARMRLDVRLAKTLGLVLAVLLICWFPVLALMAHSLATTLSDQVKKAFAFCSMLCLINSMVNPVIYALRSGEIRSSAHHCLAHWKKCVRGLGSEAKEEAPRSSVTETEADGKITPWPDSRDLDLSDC

**Q.** CC(C)(C)c1nnc(NC(=O)[C@@H]2CCCN2C2CCC2)s1 [(S)-1-Cyclobutyl-pyrrolidine-2-carboxylic acid (5-tert-butyl-1,3,4-thiadiazol-2-yl)-amide] was tested. Which EC50 did it give?
**A.** Its EC50 is 255 nM.

**Q.** Which EC50 does the source give for CC(C)(C)c1cc(NC(=O)[C@@H]2CCC(=O)N2c2ccc(Cl)cn2)on1 [(S)-1-(5-Chloro-pyridin-2-yl)-5-oxo-pyrrolidine-2-carboxylic acid (3-tert-butyl-isoxazol-5-yl)-amide] here?
**A.** Its EC50 is 3.44 nM.

**Q.** With O=C(NC1CCOCC1)[C@@H]1CCCN1c1ccc(Cl)cc1 [(S)-1-(4-Chloro-phenyl)-pyrrolidine-2-carboxylic acid (tetrahydro-pyran-4-yl)-amide] as the compound, how does the EC50 read?
**A.** Its EC50 is 254 nM.

**Q.** For CC(C)(C)c1csc(NC(=O)[C@@H]2CCCN2C2CCOCC2)n1 [(S)-1-(Tetrahydro-pyran-4-yl)-pyrrolidine-2-carboxylic acid (4-tert-butyl-thiazol-2-yl)-amide], which EC50 is on record?
**A.** The EC50 was 279 nM.

**Q.** How did the EC50 turn out when CC(C)(C)c1cc(NC(=O)[C@@H]2CCCN2C(=O)N2CCS(=O)(=O)CC2)on1 was run?
**A.** The EC50 was 97.1 nM.

**Q.** O=C(Nc1nc(-c2ccc(Cl)cc2)cs1)[C@@H]1CCCN1c1ccc(Cl)cc1 [(S)-1-(4-Chloro-phenyl)-pyrrolidine-2-carboxylic acid [4-(4-chloro-phenyl)-thiazol-2-yl]-amide] was tested. Which EC50 did it give?
**A.** The EC50 was 84.9 nM.

**Q.** Which EC50 does the source give for CC(C)(C)c1cc(NC(=O)[C@@H]2C[C@@H](O)CN2c2ccc(C(F)(F)F)cn2)on1 [(2S,4R)-4-Hydroxy-1-(5-trifluoromethyl-pyridin-2-yl)-pyrrolidine-2-carboxylic acid (3-tert-butyl-isoxazol-5-yl)-amide] here?
**A.** The EC50 was 0.433 nM.

**Q.** CC(C)(C)c1cc(NC(=O)[C@]2(C)CCCN2c2ccc(Cl)cc2)no1 [(S)-1-(4-Chloro-phenyl)-2-methyl-pyrrolidine-2-carboxylic acid (5-tert-butyl-isoxazol-3-yl)-amide] was tested. Which EC50 did it give?
**A.** Its EC50 is 0.21 nM.

**Q.** For CC(C)(C)c1cc(NC(=O)[C@@H]2CCC(=O)N2c2ncc(C(F)(F)F)cc2F)on1 [(S)-1-(3-Fluoro-5-trifluoromethyl-pyridin-2-yl)-5-oxo-pyrrolidine-2-carboxylic acid (3-tert-butyl-isoxazol-5-yl)-amide], which EC50 is on record?
**A.** Its EC50 is 5 nM.

**Q.** CC1(C)CC(=O)C=C(NC(=O)[C@@H]2CCCN2c2ccc(Cl)cc2)C1 [(S)-1-(4-Chloro-phenyl)-pyrrolidine-2-carboxylic acid (5,5-dimethyl-3-oxo-cyclohex-1-enyl)-amide] was tested. Which EC50 did it give?
**A.** Its EC50 is 17.9 nM.

**Q.** How did the EC50 turn out when CC1CC(NC(=O)[C@@H]2C[C@@H](O)CN2CC2CCOCC2)CC(C)(C)C1 (stereo partly drawn) [(2S,4R)-4-Hydroxy-1-(tetrahydro-pyran-4-ylmethyl)-pyrrolidine-2-carboxylic acid (3,3,5-trimethyl-cyclohexyl)-amide] was run?
**A.** The EC50 was 219 nM.

**Q.** Which EC50 does the source give for CC(C)(C)OC(=O)CN1CCC[C@H]1C(=O)Nc1cc(C(C)(C)C)no1 [[(S)-2-(3-tert-Butyl-isoxazol-5-ylcarbamoyl)-pyrrolidin-1-yl]-acetic acid tert-butyl ester] here?
**A.** The EC50 was 0.1 nM.

**Q.** How did the EC50 turn out when CC(C)(C)c1cc(NC(=O)[C@@H]2C[C@@H](O)CN2CC2CCOCC2)no1 [(2S,4R)-4-Hydroxy-1-(tetrahydro-pyran-4-ylmethyl)-pyrrolidine-2-carboxylic acid (5-tert-butyl-isoxazol-3-yl)-amide] was run?
**A.** The EC50 was 3.89 nM.

**Q.** For COCC(C)(C)c1cc(NC(=O)[C@@H]2C[C@@H](O)CN2c2ccc(Cl)cc2)no1 [(2S,4R)-1-(4-Chloro-phenyl)-4-hydroxy-pyrrolidine-2-carboxylic acid [5-(2-methoxy-1,1-dimethyl-ethyl)-isoxazol-3-yl]-amide], which EC50 is on record?
**A.** The EC50 was 80.9 nM.

**Q.** C[C@@]1(C(=O)Nc2ccc(C(F)(F)F)cn2)CCCN1c1ccc(Cl)cc1 [(S)-1-(4-Chloro-phenyl)-2-methyl-pyrrolidine-2-carboxylic acid (5-trifluoromethyl-pyridin-2-yl)-amide] was tested. Which EC50 did it give?
**A.** Its EC50 is 27.2 nM.

**Q.** With CC(C)(C)c1cc(NC(=O)[C@@H]2CCCN2c2ccc(C(F)(F)F)cn2)on1 [(S)-1-(5-Trifluoromethyl-pyridin-2-yl)-pyrrolidine-2-carboxylic acid (3-tert-butyl-isoxazol-5-yl)-amide] as the compound, how does the EC50 read?
**A.** The EC50 was 0.023 nM.

**Q.** How did the EC50 turn out when CC(C)c1ccc(N2C(=O)CC[C@H]2C(=O)Nc2cc(C(C)(C)C)no2)cc1 [(S)-1-(4-Isopropyl-phenyl)-5-oxo-pyrrolidine-2-carboxylic acid (3-tert-butyl-isoxazol-5-yl)-amide] was run?
**A.** Its EC50 is 159 nM.

**Q.** CC(C)(C)c1cc(NC(=O)[C@@H]2CCC(=O)N2c2cccc(F)c2)on1 [(S)-1-(3-Fluoro-phenyl)-5-oxo-pyrrolidine-2-carboxylic acid (3-tert-butyl-isoxazol-5-yl)-amide] was tested. Which EC50 did it give?
**A.** The EC50 was 357 nM.

**Q.** Which EC50 does the source give for O=C(Nc1cccc(C(F)(F)F)n1)[C@@H]1CCCN1c1ccc(Cl)cc1 [(S)-1-(4-Chloro-phenyl)-pyrrolidine-2-carboxylic acid (6-trifluoromethyl-pyridin-2-yl)-amide] here?
**A.** Its EC50 is 48.8 nM.

**Q.** CC(C)(C)c1cc(NC(=O)[C@@H]2CC(F)(F)CN2C(=O)C2CCC(F)(F)CC2)no1 [(S)-1-(4,4-Difluoro-cyclohexanecarbonyl)-4,4-difluoro-pyrrolidine-2-carboxylic acid (5-tert-butyl-isoxazol-3-yl)-amide] was tested. Which EC50 did it give?
**A.** The EC50 was 226 nM.

**Q.** With COCC(C)(C)c1cc(NC(=O)[C@@H]2CCC(=O)N2c2ccc(Cl)cc2)no1 [(S)-l-(4-Chloro-phenyl)-5-oxo-pyrrolidine-2-carboxylic acid [5-(2-methoxy-1,1-dimethyl-ethyl)-isoxazol-3-yl]-amide] as the compound, how does the EC50 read?
**A.** Its EC50 is 86.1 nM.

**Q.** For O=C(Nc1nc(-c2ccccc2)ns1)[C@@H]1CCCN1c1ccc(Cl)cc1 [(S)-1-(4-Chloro-phenyl)-pyrrolidine-2-carboxylic acid (3-phenyl-1,2,4-thiadiazol-5-yl)-amide], which EC50 is on record?
**A.** The EC50 was 4.85 nM.

**Q.** How did the EC50 turn out when CCCS(=O)(=O)N1CCC[C@H]1C(=O)Nc1cc(C(C)(C)C)on1 [(S)-1-(Propane-1-sulfonyl)-pyrrolidine-2-carboxylic acid (5-tert-butyl-isoxazol-3-yl)-amide] was run?
**A.** The EC50 was 120 nM.

**Q.** With Cc1ccc(N2C(=O)CC[C@H]2C(=O)Nc2cc(C(C)(C)C)no2)nc1 [(S)-1-(5-Methyl-pyridin-2-yl)-5-oxo-pyrrolidine-2-carboxylic acid (3-tert-butyl-isoxazol-5-yl)-amide] as the compound, how does the EC50 read?
**A.** Its EC50 is 15.4 nM.

**Q.** How did the EC50 turn out when CC(C)(C)Cc1cc(NC(=O)[C@@H]2CCCN2C2CCCC2)on1 [(S)-1-Cyclopentyl-pyrrolidine-2-carboxylic acid [3-(2,2-dimethyl-propyl)-isoxazol-5-yl]-amide] was run?
**A.** The EC50 was 113 nM.

**Q.** How did the EC50 turn out when O=C(Nc1nc2cc(Cl)ccc2[nH]1)[C@@H]1CCCN1CC1CCOCC1 [(S)-1-(Tetrahydro-pyran-4-ylmethyl)-pyrrolidine-2-carboxylic acid (5-chloro-1H-benzimidazol-2-yl)-amide] was run?
**A.** Its EC50 is 48.6 nM.

**Q.** With CC(C)(C)c1cc(NC(=O)[C@@H]2CCC(=O)N2c2ccc(CF)cc2)on1 [(S)-1-(4-Fluoromethyl-phenyl)-5-oxo-pyrrolidine-2-carboxylic acid (3-tert-butyl-isoxazol-5-yl)-amide] as the compound, how does the EC50 read?
**A.** The EC50 was 55.8 nM.

**Q.** How did the EC50 turn out when CC(C)(C)c1cc(NC(=O)[C@@H]2CCC(=O)N2c2ccc(Cl)cc2F)on1 [(S)-1-(4-Chloro-2-fluoro-phenyl)-5-oxo-pyrrolidine-2-carboxylic acid (3-tert-butyl-isoxazol-5-yl)-amide] was run?
**A.** Its EC50 is 82 nM.

**Q.** CC(C)(C)c1cc(NC(=O)[C@@H]2CCC(=O)N2c2ccc(C(F)(F)F)c(F)n2)on1 [(S)-1-(6-Fluoro-5-trifluoromethyl-pyridin-2-yl)-5-oxo-pyrrolidine-2-carboxylic acid (3-tert-butyl-isoxazol-5-yl)-amide] was tested. Which EC50 did it give?
**A.** Its EC50 is 8.05 nM.

**Q.** CCCc1cc(NC(=O)[C@@H]2CCC(=O)N2c2ccc(Cl)cc2)on1 [(S)-1-(4-Chloro-phenyl)-5-oxo-pyrrolidine-2-carboxylic acid (3-propyl-isoxazol-5-yl)-amide] was tested. Which EC50 did it give?
**A.** Its EC50 is 263 nM.

**Q.** How did the EC50 turn out when Cc1cc(N2C(=O)CC[C@H]2C(=O)Nc2cc(C(C)(C)C)on2)ccc1F [(S)-1-(4-Fluoro-3-methyl-phenyl)-5-oxo-pyrrolidine-2-carboxylic acid (5-tert-butyl-isoxazol-3-yl)-amide] was run?
**A.** Its EC50 is 362 nM.

**Q.** CC(C)(C)c1cc(NC(=O)[C@@H]2CCC(=O)N2c2ccc(OC(F)(F)F)cc2)on1 [(S)-5-Oxo-1-(4-trifluoromethoxy-phenyl)-pyrrolidine-2-carboxylic acid (3-tert-butyl-isoxazol-5-yl)-amide] was tested. Which EC50 did it give?
**A.** The EC50 was 34.5 nM.

**Q.** With CC(C)N1CCC[C@H]1C(=O)Nc1cc(C(C)(C)C)no1 [(S)-1-Isopropyl-pyrrolidine-2-carboxylic acid (3-tert-butyl-isoxazol-5-yl)-amide] as the compound, how does the EC50 read?
**A.** Its EC50 is 163 nM.

**Q.** With CC(C)(C)c1cc(NC(=O)[C@@H]2C[C@@H](O)CN2Cc2ccc(F)c(F)c2)no1 [(2S,4R)-1-(3,4-Difluoro-benzyl)-4-hydroxy-pyrrolidine-2-carboxylic acid (5-tert-butyl-isoxazol-3-yl)-amide] as the compound, how does the EC50 read?
**A.** The EC50 was 12.3 nM.

same assay, conditions: CHO cells expressing human CB2R; inhibition of forskolin-stimulated cAMP synthesis; mean; read-out: CB2 CAMP @ EC50 nM (mean)

**Q.** How did the EC50 turn out when CC(C)(C)c1nnc(NC(=O)[C@@H]2CCCN2C2CC2)s1 [(S)-1-Cyclopropyl-pyrrolidine-2-carboxylic acid (5-tert-butyl-1,3,4-thiadiazol-2-yl)-amide] was run?
**A.** Its EC50 is 109 nM.

**Q.** How did the EC50 turn out when CCC(C)c1cc(NC(=O)[C@@H]2CCC(=O)N2c2ccc(Cl)cc2)on1 (stereo partly drawn) [(S)-1-(4-Chloro-phenyl)-5-oxo-pyrrolidine-2-carboxylic acid (3-sec-butyl-isoxazol-5-yl)-amide] was run?
**A.** The EC50 was 104 nM.

**Q.** With CC(C)(C)c1cc(NC(=O)[C@@H]2CCC(=O)N2c2cccc(Cl)c2)no1 [(S)-1-(3-Chloro-phenyl)-5-oxo-pyrrolidine-2-carboxylic acid (5-tert-butyl-isoxazol-3-yl)-amide] as the compound, how does the EC50 read?
**A.** Its EC50 is 296 nM.
